Assay results reported in ChEMBL document CHEMBL1149262, “Monoamine transporter binding, locomotor activity, and drug discrimination properties of 3-(4-substituted-phenyl)tropane-2-carboxylic acid methyl ester isomers” (J Med Chem, 2004).
Active and inactive are the calls of the source. The rule behind the calls is not given here.

Legend:
Mus musculus [1] = assay: Locomotor activity in CD1 mouse assessed as stimulation at 1 mg/kg, ip after 2 hrs relative to control; type: functional; conditions: route intraperitoneal
Mus musculus [2] = assay: Locomotor activity in CD1 mouse assessed as stimulation at 0.3 mg/kg, ip after 2 hrs relative to control; type: functional; conditions: route intraperitoneal
Mus musculus [3] = assay: Locomotor activity in CD1 mouse assessed as stimulation at 1 mg/kg, ip after 3 hrs relative to control; type: functional; conditions: route intraperitoneal
Rattus norvegicus [4] = assay: Drug discrimination effect in CD Albino rat assessed as percent of rat choosing cocaine lever at 0.1 mg/kg, ip; type: functional; conditions: route intraperitoneal
Mus musculus [5] = assay: Activity in CD1 mouse assessed as circling at 1 mg/kg, ip after 4 hrs; type: functional, organism-based; parameters: dose 1 mg/kg
Mus musculus [6] = assay: Locomotor activity in ip dosed CD1 mouse in peak hour; type: functional
Mus musculus [7] = assay: Activity in CD1 mouse assessed as stereotypy at 10 mg/kg, ip after 4 hrs; type: functional, organism-based; parameters: dose 10 mg/kg
Mus musculus [8] = assay: Locomotor activity in CD1 mouse assessed as stimulation at 3 mg/kg, ip after 2 hrs relative to control; type: functional; conditions: route intraperitoneal
Mus musculus [9] = assay: Activity in CD1 mouse assessed as stereotypy at 100 mg/kg, ip after 4 hrs; type: functional, organism-based; parameters: dose 100 mg/kg
Mus musculus [10] = assay: Activity in CD1 mouse assessed as stereotypy at 1 mg/kg, ip after 4 hrs; type: functional, organism-based; parameters: dose 1 mg/kg
Mus musculus [11] = assay: Activity in CD1 mouse assessed as straub tail at 100 mg/kg, ip after 4 hrs; type: functional, organism-based; parameters: dose 100 mg/kg
Mus musculus [12] = assay: Locomotor activity in CD1 mouse assessed as stimulation at 0.3 mg/kg, ip after 4 hrs relative to control; type: functional; conditions: route intraperitoneal
Rattus norvegicus [13] = assay: Cocaine discrimination in ip dosed CD Albino rat; type: functional
Mus musculus [14] = assay: Locomotor activity in CD1 mouse assessed as stimulation at 0.1 mg/kg, ip after 3 hrs relative to control; type: functional; conditions: route intraperitoneal
Mus musculus [15] = assay: Locomotor activity in CD1 mouse assessed as stimulation at 3 mg/kg, ip after 3 hrs relative to control; type: functional; conditions: route intraperitoneal
[16] = target: Sodium-dependent dopamine transporter (Homo sapiens, UniProt Q01959); assay: Displacement of [3H]WIN-35428 from DAT
Rattus norvegicus [17] = assay: Drug discrimination effect in CD Albino rat assessed as percent of rat choosing cocaine lever at 0.17 mg/kg, ip; type: functional; conditions: route intraperitoneal
Mus musculus [18] = assay: Activity in CD1 mouse assessed as hind limb splay at 100 mg/kg, ip after 4 hrs; type: functional, organism-based; parameters: dose 100 mg/kg; conditions: Hindlimb
Mus musculus [19] = assay: Locomotor activity in CD1 mouse assessed as stimulation at 0.1 mg/kg, ip after 2 hrs relative to control; type: functional; conditions: route intraperitoneal
Mus musculus [20] = assay: Locomotor activity in CD1 mouse assessed as stimulation at 3 mg/kg, ip after 1 hr relative to control; type: functional; conditions: route intraperitoneal
Mus musculus [21] = assay: Locomotor activity in CD1 mouse assessed as stimulation at 0.1 mg/kg, ip after 4 hrs relative to control; type: functional; conditions: route intraperitoneal
Mus musculus [22] = assay: Locomotor activity in CD1 mouse assessed as stimulation at 3 mg/kg, ip after 4 hrs relative to control; type: functional; conditions: route intraperitoneal
Mus musculus [23] = assay: Locomotor activity in CD1 mouse assessed as stimulation at 1 mg/kg, ip after 1 hr relative to control; type: functional; conditions: route intraperitoneal
Mus musculus [24] = assay: Locomotor activity in CD1 mouse assessed as stimulation at 1 mg/kg, ip after 4 hrs relative to control; type: functional; conditions: route intraperitoneal
Mus musculus [25] = assay: Activity in CD1 mouse assessed as hyperactivity at 1 mg/kg, ip after 4 hrs; type: functional, organism-based; parameters: dose 1 mg/kg
Mus musculus [26] = assay: Locomotor activity in CD1 mouse assessed as stimulation at 0.3 mg/kg, ip after 3 hrs relative to control; type: functional; conditions: route intraperitoneal
Rattus norvegicus [27] = assay: Drug discrimination effect in CD Albino rat assessed as percent of rat choosing cocaine lever at 0.3 mg/kg, ip; type: functional; conditions: route intraperitoneal
Mus musculus [28] = assay: Locomotor activity in CD1 mouse assessed as stimulation at 0.1 mg/kg, ip after 1 hr relative to control; type: functional; conditions: route intraperitoneal
Mus musculus [29] = assay: Locomotor activity in CD1 mouse assessed as stimulation at 0.3 mg/kg, ip after 1 hr relative to control; type: functional; conditions: route intraperitoneal
Mus musculus [30] = assay: Locomotor activity in CD1 mouse assessed as stimulation at 10 mg/kg, ip after 4 hrs relative to control; type: functional; conditions: route intraperitoneal
Rattus norvegicus [31] = assay: Drug discrimination effect in CD Albino rat assessed as percent of rat choosing cocaine lever at 1 mg/kg, ip; type: functional; conditions: route intraperitoneal
Mus musculus [32] = assay: Locomotor activity in CD1 mouse assessed as stimulation at 10 mg/kg, ip after 2 hrs relative to control; type: functional; conditions: route intraperitoneal
Mus musculus [33] = assay: Locomotor activity in CD1 mouse assessed as stimulation at 10 mg/kg, ip after 3 hrs relative to control; type: functional; conditions: route intraperitoneal
[34] = target: Sodium-dependent noradrenaline transporter (Homo sapiens, UniProt P23975); assay: Displacement of [3H]nisoxetine from NET
Rattus norvegicus [35] = assay: Drug discrimination effect in CD Albino rat assessed as percent of rat choosing cocaine lever at 0.56 mg/kg, ip; type: functional; conditions: route intraperitoneal
Mus musculus [36] = assay: Locomotor activity in CD1 mouse assessed as stimulation at 10 mg/kg, ip after 1 hr relative to control; type: functional; conditions: route intraperitoneal
Rattus norvegicus [37] = assay: Drug discrimination effect in CD Albino rat assessed as percent of rat choosing cocaine lever at 10 mg/kg, ip; type: functional; conditions: route intraperitoneal
Rattus norvegicus [38] = assay: Drug discrimination effect in CD Albino rat assessed as percent of rat choosing cocaine lever at 3 mg/kg, ip; type: functional; conditions: route intraperitoneal
Mus musculus [39] = assay: Locomotor activity in CD1 mouse assessed as stimulation at 100 mg/kg, ip after 1 hr relative to control; type: functional; conditions: route intraperitoneal
Mus musculus [40] = assay: Activity in CD1 mouse assessed as hyperactivity at 100 mg/kg, ip after 4 hrs; type: functional, organism-based; parameters: dose 100 mg/kg
Mus musculus [41] = assay: Locomotor activity in CD1 mouse assessed as stimulation at 100 mg/kg, ip after 2 hrs relative to control; type: functional; conditions: route intraperitoneal
Mus musculus [42] = assay: Locomotor activity in CD1 mouse assessed as stimulation at 30 mg/kg, ip after 2 hrs relative to control; type: functional; conditions: route intraperitoneal
Mus musculus [43] = assay: Locomotor activity in CD1 mouse assessed as stimulation at 100 mg/kg, ip after 4 hrs relative to control; type: functional; conditions: route intraperitoneal
Mus musculus [44] = assay: Activity in CD1 mouse assessed as circling at 100 mg/kg, ip after 4 hrs; type: functional, organism-based; parameters: dose 100 mg/kg
Mus musculus [45] = assay: Locomotor activity in CD1 mouse assessed as stimulation at 30 mg/kg, ip after 3 hrs relative to control; type: functional; conditions: route intraperitoneal
Mus musculus [46] = assay: Activity in CD1 mouse assessed as slight or intermittent hyperactivity at 10 mg/kg, ip after 4 hrs; type: functional, organism-based; parameters: dose 10 mg/kg
Mus musculus [47] = assay: Locomotor activity in CD1 mouse assessed as stimulation at 100 mg/kg, ip after 3 hrs relative to control; type: functional; conditions: route intraperitoneal
Mus musculus [48] = assay: Locomotor activity in CD1 mouse assessed as stimulation at 30 mg/kg, ip after 4 hrs relative to control; type: functional; conditions: route intraperitoneal
Rattus norvegicus [49] = assay: Drug discrimination effect in CD Albino rat assessed as percent of rat choosing cocaine lever at 5.6 mg/kg, ip; type: functional; conditions: route intraperitoneal
Mus musculus [50] = assay: Locomotor activity in CD1 mouse assessed as stimulation at 30 mg/kg, ip after 1 hr relative to control; type: functional; conditions: route intraperitoneal

Sequence of Sodium-dependent noradrenaline transporter (P23975 whole entry): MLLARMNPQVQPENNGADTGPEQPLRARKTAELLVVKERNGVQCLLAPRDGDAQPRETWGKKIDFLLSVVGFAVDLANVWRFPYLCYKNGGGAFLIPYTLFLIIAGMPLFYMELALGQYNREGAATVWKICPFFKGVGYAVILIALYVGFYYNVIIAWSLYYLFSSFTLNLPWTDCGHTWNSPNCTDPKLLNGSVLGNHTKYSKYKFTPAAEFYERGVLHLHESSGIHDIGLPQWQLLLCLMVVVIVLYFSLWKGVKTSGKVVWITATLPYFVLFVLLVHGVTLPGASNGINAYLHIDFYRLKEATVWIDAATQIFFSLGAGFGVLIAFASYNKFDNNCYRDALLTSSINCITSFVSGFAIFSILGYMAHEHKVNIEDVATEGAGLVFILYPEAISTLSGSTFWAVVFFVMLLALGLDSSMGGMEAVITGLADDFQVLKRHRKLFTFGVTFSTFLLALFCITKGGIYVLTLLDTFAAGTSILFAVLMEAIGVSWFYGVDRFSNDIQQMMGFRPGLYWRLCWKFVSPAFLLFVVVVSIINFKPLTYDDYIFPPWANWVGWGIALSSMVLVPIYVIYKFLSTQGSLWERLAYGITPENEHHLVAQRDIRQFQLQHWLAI
Sequence of Sodium-dependent dopamine transporter (Q01959 whole entry): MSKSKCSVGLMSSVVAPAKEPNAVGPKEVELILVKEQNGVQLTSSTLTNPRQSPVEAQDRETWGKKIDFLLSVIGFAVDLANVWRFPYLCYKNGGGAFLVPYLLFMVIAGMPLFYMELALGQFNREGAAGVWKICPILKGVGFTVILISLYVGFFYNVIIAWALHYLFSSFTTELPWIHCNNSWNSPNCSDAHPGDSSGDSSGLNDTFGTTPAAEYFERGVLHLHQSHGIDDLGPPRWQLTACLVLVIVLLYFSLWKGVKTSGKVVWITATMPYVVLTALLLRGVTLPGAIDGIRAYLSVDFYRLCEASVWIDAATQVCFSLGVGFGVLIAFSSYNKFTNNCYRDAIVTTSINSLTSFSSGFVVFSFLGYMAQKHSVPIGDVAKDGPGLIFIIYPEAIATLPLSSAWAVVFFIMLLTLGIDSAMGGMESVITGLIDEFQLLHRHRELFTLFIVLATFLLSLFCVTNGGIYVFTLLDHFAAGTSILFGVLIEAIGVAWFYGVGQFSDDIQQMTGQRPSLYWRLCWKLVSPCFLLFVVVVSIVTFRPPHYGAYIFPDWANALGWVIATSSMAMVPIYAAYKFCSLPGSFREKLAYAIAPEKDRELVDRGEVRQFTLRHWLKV

SMILES | Activity (Mus musculus [1]) | Activity (Mus musculus [2]) | Activity (Mus musculus [3]) | Activity (Rattus norvegicus [4]) | ED50 (Mus musculus [6]) | Activity (Mus musculus [7]) | Activity (Mus musculus [8]) | Activity (Mus musculus [9]) | Activity (Mus musculus [12]) | ED50 (Rattus norvegicus [13]) | Activity (Mus musculus [15]) | IC50 [16] | Activity (Rattus norvegicus [17]) | Activity (Mus musculus [20]) | Activity (Mus musculus [22]) | Activity (Mus musculus [23]) | Activity (Mus musculus [24]) | Activity (Mus musculus [26]) | Activity (Rattus norvegicus [27]) | Activity (Mus musculus [29]) | also measured
COC(=O)C1C2CC[C@H](C[C@@H]1c1ccc(Cl)cc1)N2C (stereo partly specified) | 958% | 1426% | 1892% | 50% | 0.2 mg/kg | Active | -36% | Active | 235% | 0.13 mg/kg | 589% | 1.1 nM | 44% | 416% | 1643% | 645% | 1507% | 1201% | 100% | 462% | Activity (Mus musculus [5]): Active; Activity (Mus musculus [10]): Active; Activity (Mus musculus [11]): Active; Activity (Mus musculus [14]): 91%; Activity (Mus musculus [18]): Active; Activity (Mus musculus [19]): 53%; Activity (Mus musculus [21]): 17%; Activity (Mus musculus [25]): Active; Activity (Mus musculus [28]): -26%
COC(=O)[C@@H]1C2CC[C@H](C[C@@H]1c1ccc(C)cc1)N2C | 298% | -3% | 41% | 0% | 0.6 mg/kg | Active | 460% | Active | -28% | 0.31 mg/kg | 157% | 1.7 nM | 25% | 533% | 30% | 305% | -4% | -61% | 57% | 19% | Activity (Mus musculus [30]): 273%; Activity (Rattus norvegicus [31]): 86%; Activity (Mus musculus [32]): 476%; Activity (Mus musculus [33]): 343%; IC50 [34]: 60 nM; Ki [34]: 36 nM; Activity (Rattus norvegicus [35]): 71%; Activity (Mus musculus [36]): 283%
COC(=O)[C@@H]1C2CCC(C[C@H]1c1ccccc1)N2C (stereo partly specified) | – | – | – | – | 21.8 mg/kg | Active | -39% | Active | – | 3.19 mg/kg | -35% | 101 nM | – | -30% | 12% | – | – | – | – | – | Activity (Mus musculus [30]): 6%; Activity (Rattus norvegicus [37]): 100%; Activity (Rattus norvegicus [38]): 13%; Activity (Mus musculus [32]): 6%; Activity (Mus musculus [39]): 338%; Activity (Mus musculus [40]): Active; Activity (Mus musculus [41]): 191%; Activity (Mus musculus [42]): 17%; Activity (Mus musculus [43]): 390%; Activity (Mus musculus [33]): -13%; Activity (Mus musculus [44]): Active; Activity (Mus musculus [45]): 47%; Activity (Mus musculus [46]): Active; IC50 [34]: 541 nM; Ki [34]: 271 nM; Activity (Mus musculus [47]): 234%; Activity (Mus musculus [48]): 97%; Activity (Rattus norvegicus [49]): 100%; Activity (Mus musculus [50]): 161%; Activity (Mus musculus [36]): 43%
